Patent US20010018422A1, “Dolastatin 15 derivatives” (BASF Aktiengesellschaft, priority 1999, published 2001)

Key:
[1] = system: National Cancer Institute's P388 lymphocytic leukemia (PS system) cell line; conditions: cited from earlier work
[2] = synthetic Dolastatin 15; cited from earlier work
[3] = system: tumor cells such as the HT-29 colon carcinoma or LX-1 lung tumor; test: Cytotoxicity, microculture tetrazolium assay (MTT); type: cell-based; conditions: 48 hours incubation, T/C of 50%, cell line not given
Method: Cytotoxicity was measured using a standard methodology for adherent cell lines, such as the microculture tetrazolium assay (MTT). Details of this assay have been published (Alley, M. C. et al., Cancer Research 48: 589-601, 1988). Exponentially growing cultures of tumor cells such as the HT-29 colon carcinoma or LX-1 lung tumor were used to make microtiter plate cultures. Cells were seeded at 5000-20,000 cells per well in 96-well plates (in […] of media), and grown overnight at 37° C. Test compounds were added, in 10-fold dilutions varying from 10^−4 M to 10^−10 M. Cells were then incubated for 48 hours. To determine the number of viable cells in each well, the MTT dye was added ([…] of a 3 mg/mL solution of 3-(4,5-dimethylthiazol-2-yl)-2,5-diphenyltetrazolium bromide in saline). This mixture was incubated at 37° C. for 5 hours, and then […] of 25% SDS, pH 2, was added to each well. After an overnight incubation, the absorbance of each well at 550 nm was read using an ELISA reader. The values for the mean+/−SD of data from replicated wells were calculated, using the formula % T/C (% viable cells treated/control). The concentration of test compound which gives a T/C of 50% growth inhibition was designated as the IC50.

Molecule | inhibition of growth of P388 cell line [1] | solubility in aqueous systems [2] | IC50 [3]
Dolastatin 15 | markedly inhibits the growth | poor solubility | –
CC(C)C(NC(=O)[C@H](C(C)C)N(C)C)C(=O)N(C)[C@H](C(=O)N1CCC[C@H]1C(=O)NC1CCCC1C(=O)NCc1ccccc1)C(C)C (stereo partly drawn) [VII-2, Me2-Val-Val-MeVal-Pro-[cis-2-aminocyclopentanecarboxylic acid]-NHBn] | – | – | > 1000 nM
2-(Me2Val-Val-MeVal-Pro-NH)—C6H4—CO—CH3 [IV-1] | – | – | > 1000 nM
CON(C)C(=O)c1ccccc1NC(=O)[C@@H]1CCCN1C(=O)[C@H](C(C)C)N(C)C(=O)C(NC(=O)[C@H](C(C)C)N(C)C)C(C)C (stereo partly drawn) [Compound I-60, (2)-(Me2Val-Val-MeVal-Pro-NH)—C6H4—CON(CH3)(OCH3)] | – | – | 400 nM
CNC(=O)c1cccc(C2CCCC2)c1NC(=O)[C@@H]1CCCN1C(=O)[C@H](C(C)C)N(C)C(=O)[C@@H](NC(=O)[C@H](C(C)C)N(C)C)C(C)C [Compound I-7, 2-(Me2ValVal-MeVal-ProNH)-3-cyclopentanyl-C6H3C(O)NHCH3] | – | – | 400 nM
